{"source": "patent US8729048B2", "about": "“Methods and materials for assessing responsiveness to PARP inhibitors and platinating agents” (Mayo Foundation for Medical Education and Research, priority 2011, dated 2014)", "key": {"[1]": {"test_system": "DNA-PKcs-reconstituted M059J cells", "test": "Clonogenic assay, M059J+DNA-PKcs", "format": "cell-based", "details": "BRCA1 shRNA", "procedure": "FIG. 6. […] (A) BRCA1-deficient HCC1937 and BRCA1-reconstituted HCC1937/BRCA1 cells were continuously exposed to ABT-888 in the presence or absence of 125 nM DNA-PKi and assayed for clonogenic survival. Inset, Western blots of cell lysates from HCC1937 and HCC1937/BRCA1. (B) Western blots of M059J and reconstituted M059J+DNA-PKcs lines showing the restoration of DNA-PK expression and the shRNA-mediated knockdown of BRCA1. (C) Clonogenic survival of shRNA transfected M059J/M059J+DNA-PKcs lines treated with ABT-888 for 72 hours. (D) Clonogenic survival of ATM-deficient GM16666 or ATM-reconstituted GM16667 fibroblasts. Cells were exposed to ABT-888 for 48 hours in the presence or absence of 250 nM DNA-PKi, washed, and allowed to form colonies. Inset, Western blots of lysates from GM16666 and GM16667 fibroblasts. […] Results are representative of 3 independent experiments.\nAll siRNA oligonucleotides were purchased from Ambion, Inc. (Austin, Tex.). Sequences, with references, are provided below. PEO1 and PEO4 cells were transfected with 150 picomoles of siRNA using the HiPerfect lipid transfection reagent (Qiagen; Valencia, Calif.). […]\nColony formation assays were performed on siRNA-transfected PEO1 and PEO4 cells 48 hours after the second transfection. […] Colonies containing ≧50 cells were scored manually. […]"}, "[2]": {"test_system": "HPRT locus in BRCA2-mutant CAPAN1 cells", "test": "HPRT mutagenesis assay", "format": "cell-based", "details": "250 nM DNA-PKi, 72 hours", "procedure": "FIG. 4. PARP inhibitor-induced chromosomal derangement and genomic instability is dependent on DNA-PK activity. (A) Representative images of metaphase spreads from cells treated with diluent (0.2% DMSO), 500 nM DNA-PKi, 2.5 μM ABT-888, or both ABT-888 and DNA-PKi for 72 hours. Chromosomal breaks are marked with arrowheads and radial structures are marked with asterisks. (B) Quantitation of data from (A) showing average radial chromosomes per cell (n=100 for each data point pooled from two separate experiments, error bars represent SEM). † indicate values that are zero. (C) Calculated mutagenesis frequency in BRCA2-mutant CAPAN1 cells after control treatment or exposure to ABT-888 with or without 250 nM DNA-PKi. Each bar represents the mean±SEM of 5-8 plates.\nHPRT mutagenesis was performed as described elsewhere (Hashimoto et al., Clin. Cancer Res., 1:369-376 (1995)). […] Each sample group was trypsinized, replated at 10^6 cells/100-mm dish in medium E supplemented with 15 μM 6-TG, cultured until colonies were visible (14-21 days), and analyzed manually for colony formation. […] Mutagenesis frequencies were calculated by dividing the number of colonies on 6-TG-treated plates by the total number of possible colonies (10^6 cells×plating efficiency)."}}}
{"compound": "C[C@]1(c2nc3c(C(N)=O)cccc3[nH]2)CCCN1", "note": "[ABT-888]", "values": [{"measurement": "clonogenic sensitivity to ABT-888 after BRCA1 knockdown", "setting": "[1]", "result": "sensitized"}]}
{"compound": "CCN1CCN(CC(=O)Nc2ccc(-c3cccc4c(=O)cc(N5CCOCC5)oc34)c3sc4ccccc4c23)CC1", "note": "[AZ 12594248]", "values": [{"measurement": "effect of co-administration on PARP inhibitor-induced HPRT mutation frequency", "setting": "[2]", "result": "markedly reduced the mutation frequency"}]}
